According to patent publication US20260174692A1, “AEROSOL COMPOSITION” (UPyTher B.V., priority 2023, published 2026):

Experiments:
[1] = In vitro release of ipilimumab from hydrogel; assay type: physicochemical; conditions: 10 wt % UPy-PEG10k hydrogel; PBS pH 7.4
Description: The monoclonal antibody ipilimumab was loaded from a stock solution ([…] in PBS) to 3 μg/μl in the hydrogel. The drug loaded solution (50 μL) was transferred to 96-wells filter plate filled with PBS pH 7.4 (250 μL). At set time points the PBS was refreshed and the removed PBS was analyzed for antibody content with a Fortebio Octet interferometer.

[2] = In vitro release of TLR-agonists from hydrogel; assay type: physicochemical; conditions: 6 and 10 wt. % hydrogel formulations; ammonium carbonate buffer
Description: The TLR-agonist resiquimod (synonym R848) was loaded from a stock solution (50 mM in DMSO) to 1.27 mM in the hydrogel. The TLR-agonist telratolimod (synonym MEDI9197) was loaded from a stock solution (10 mM in DMSO) to 0.5 mM in the hydrogel.
The drug loaded solution (100 μL) was transferred to a Millicell insert, which was placed in a 24-wells plate filled with PBS pH 7.4 (700 μL). At set time points the PBS was refreshed and the removed PBS was analyzed for R848 content UV absorbance at 320 nm. For MEDI9197, PBS was substituted for a volatile ammonium carbonate buffer and a HPLC-MS method was used. Release experiments were performed with n=3.

[3] = cited from earlier work

With “ipilimumab: monoclonal antibody, checkpoint inhibitor (CTLA-4), loaded to 3 μg/μl in the hydrogel” the “duration of antibody release” value [1] was “released for multiple weeks”.
In the case of `CCCCCCCCCCCCCCCCCC(=O)NCCCCOn1c(CCCC)nc2c(N)nc3ccccc3c21` [MEDI9197, telratolimod], the “release rate from hydrogel” value [2] is reported as “released slower than MMC”.
In the case of `O=C1[O][Pt]2([NH][C@@H]3CCCC[C@H]3[NH]2)[O]C1=O` [oxaliplatin], the “Cmax, ePIPAC” value ([3]; administered by ePIPAC) is given as 2670 to 3280 ng/mL, the “AUCmax, systemic” value ([3]; after systemic chemotherapy) is given as 51400 to 118000 ng·h/mL and the “Cmax, systemic” value ([3]; after systemic chemotherapy) is given as 1610 to 1920 ng/mL.
